Laboratory results as given in patent publication US20250127778A1, “CANCER IMMUNOTHERAPY COMPOSITION CONTAINING INTERACTION INHIBITOR OF STING AND TRIM29 AS ACTIVE INGREDIENT” (SPARK BIOPHARMA, INC, priority 2021, published 2025).

Tests used:
TRIM29 = target: T1, TRIM29 (Mus musculus, UniProt Q8R2Q0); assay: ITDRF in Raw264.7 cells, TRIM29; format: binding; settings: FIG. 14
T1 construct: endogenous in cells; host or cells: Raw264.7
T1 sequence (Q8R2Q0 1-587): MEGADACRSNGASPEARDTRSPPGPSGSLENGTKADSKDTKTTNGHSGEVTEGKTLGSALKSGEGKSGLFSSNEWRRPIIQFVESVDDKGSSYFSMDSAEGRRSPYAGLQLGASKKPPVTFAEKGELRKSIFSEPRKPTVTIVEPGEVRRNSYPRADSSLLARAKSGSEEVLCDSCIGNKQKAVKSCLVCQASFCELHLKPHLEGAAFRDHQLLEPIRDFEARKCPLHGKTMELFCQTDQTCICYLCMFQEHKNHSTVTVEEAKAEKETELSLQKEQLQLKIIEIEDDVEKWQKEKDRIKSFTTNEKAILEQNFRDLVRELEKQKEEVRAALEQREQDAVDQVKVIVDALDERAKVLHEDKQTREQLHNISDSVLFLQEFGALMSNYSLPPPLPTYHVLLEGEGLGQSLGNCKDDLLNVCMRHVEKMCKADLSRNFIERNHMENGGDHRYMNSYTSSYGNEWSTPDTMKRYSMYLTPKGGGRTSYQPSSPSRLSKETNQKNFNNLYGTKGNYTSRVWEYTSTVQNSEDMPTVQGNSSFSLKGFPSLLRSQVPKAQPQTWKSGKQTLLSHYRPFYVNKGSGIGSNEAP
From the text: It was verified whether the oxopiperazine derivative of the present invention was bound to STING among STING and TRIM29 to inhibit interaction thereof, based on the compound of Formula 1, by the cellular thermal shift assay (CETSA) and the isothermal dose response fingerprint (ITDRF) which were major technologies for verifying the interaction between small molecule compounds and target proteins. (D. M. Molinaetal., Science 2013, 341, 84-87.)
To verify the target of the compound of Formula 1 using the CETSA technique, the human A431 cell lines and mouse Raw264.7 cell lines were seeded on a 100-mm or 150-mm culture dish and cultured for one day. […] Afterwards, centrifugation was performed at 20000 g for 20 minutes at 4° C., the supernatant was transferred to a new container, and each concentration was measured by using the Micro BCA™ protein assay kit (ThermoFisher) according to the protocol of the manufacturer. The concentration of each sample was equally adjusted by using the RIPA lysis buffer, the 5× SDS-PAGE loading buffer (Biosesang) was added according to the ratio of the manufacturer, and the resultant was treated at 95° C. for 5 minutes and analyzed by using the Western blotting method described above.

[1] = tested on: bone-marrow derived dendritic cells (BMDC) and OT-1 T cells; assay: BMDC antigen presentation to OT-1 T cells with OVA antigen; format: cell-based, mouse; settings: OVA antigen directly treated, FIG. 18
Protocol: It was confirmed that the compound of Formula 1 increased the antigen presentation efficacy of bone-marrow derived dendritic cells (BMDC) of a STING agonist to cytotoxic T cells (CD8^+ T cells).
Specifically, mouse bone marrow-derived cells were obtained from the femur and tibia of 8-week-old female C57BL/6 mice. 2×10^6 of cells were cultured in 2 mL of a MLR medium (RPMI 1640 medium supplemented with 10% FBS, 1% 1M HEPES, 1% glutamine, and 1% antibiotic-antimycotic) supplemented with 10 ng/ml mGM-CSF and 5 ng/ml IL-4 to be differentiated into dendritic cells (BMDC). On the third day from the start of cell culturing, 2 mL of the MLR medium was added. Additionally, on the sixth day, 2×10^6 dendritic cells were treated with 50 μg/mL OVA protein and/or 100 ng/ml lipopolysaccharide (LPS), and cGAMP and/or the compound represented by Formula 1 at various concentrations. Thereafter, the cells were cultured at 37° C. in a 5% CO2 incubator for 24 hours, and then flow cytometry of dendritic cell activation markers (CD80, CD86, MHC II) was performed. Subsequently, 5×10^4 dendritic cells were incubated with 2×10^5 CFSE-labeled OT-1 T cells (OVA-specific CD8^+ T cells) to observe OT-1 T cell proliferation.

[2] = tested on: bone-marrow derived dendritic cells (BMDC) and OT-1 T cells; assay: BMDC cross-antigen presentation with killed MC38 or MC38-OVA tumor cells; format: cell-based, mouse; settings: with cGAMP, FIG. 19
Protocol: In the same manner as <Experimental Example 7> above, mouse bone marrow-derived cells were obtained and differentiated. On the sixth day, 2×10^6 dendritic cells (BMDC) were co-cultured with 2×10^6 of MC38 or MC38-OVA tumor cells frozen-thawed three times and treated with cGAMP and/or the compound of Formula 1 in various concentrations. The cells were cultured at 37° C. in a 5% CO2 incubator for 24 hours, and then flow cytometry of dendritic cell activation markers (CD80, CD86, MHC II) was performed. Then, 5×10^4 cells were incubated with 2×10^5 CFSE-labeled OT-1 T cells (OVA-specific CD8^+ T cells) to observe OT-1 T cell proliferation.

[3] = Body weight and toxicity signals in CT26 syngeneic mouse model; format: in vivo; settings: treated individually or in combination, FIG. 24
Protocol: 2×10^5 CT26 cell lines were prepared in 50 μL culture medium and subcutaneously injected. […] The cGAMP solution was manufactured with a final composition of PEG400:distilled water=40:60, and 20 μL was injected each time. The solution of the compound of Formula 1 was manufactured with the composition of DMSO:PEG400:distilled water=2:40:58, and 20 μL was injected each time. The cGAMP solution was injected once every two days, four times in total, and the solution of the compound of Formula 1 was injected once every four days, two times in total, starting with the second administration of cGAMP. The size of the tumor was measured by using calipers every two days, and the volume thereof was calculated as (length×width×height/2). The body weight of the mice was also measured every two days.

tumor = assay: Combination with PD-1 antibody immune checkpoint therapeutic agent in tumor model; format: in vivo, mouse; settings: intratumoral, combination with intravenous PD-1 antibody compared to PD-1 antibody alone; FIG. 32
From the text: It was confirmed whether the efficacy can be increased in case of treating in combination with existing immune checkpoint therapeutic agents from the efficacy of constructing the systemic anticancer immune system of the compound of Formula 1.

Structure (SMILES): COc1ccc(CC2=CN(c3ccc(C(=O)NC[C@H]4CCCO4)cc3[N+](=O)[O-])[C@H](C(C)C)C(=O)N2Cc2ccc(O)cc2)cc1 [Formula 1, 4-((R)-4-(4-hydroxybenzyl)-2-isopropyl-5-(4-methoxybenzyl)-3-oxo-3,4-dihydropyrazin-1 (2H)-yl)-3-nitro-N-(((R)-tetrahydrofuran-2-yl)methyl)benzamide]
- ITDRF effect on TRIM29 (TRIM29): without affecting TRIM29
- OT-1 T cell proliferation (BMDC activation by cGAMP and antigen presentation efficacy) [1]: promoted cell proliferation in a concentration-dependent manner
- OT-1 T cell proliferation (cross-antigen presentation) ([2]; MC38 control group): such an effect did not occur at all
- OT-1 T cell proliferation (cross-antigen presentation) ([2]; killed MC38-OVA cells, concentration-dependent): promoted cell proliferation
- body weight change or signal of toxicity [3]: significant change in body weight or signal of toxicity was not observed
- final tumor weight (tumor): decreased in a concentration-dependent manner
- tumor growth (tumor): decreased in a concentration-dependent manner
